Experimental data: patent US8277824B2, “Solubilization of cyclohexane-based carboxamide derivatives for use as sensates in consumer products” (The Procter & Gamble Company, priority 2008, dated 2012)
Read-outs that look alike come from different tables or passages of the source.

Tests used:
[1] = concentration level where the cooling effect could be clearly recognized; Emberger and Hopp 1987; cited from earlier work
[2] = Experimental solubility limit of G-180 in liquid solvents (visual clarity); format: physicochemical; details: 25° C.
Method: The solubility of G-180 in various solvents was determined as follows. Aliquot one to twenty grams of a target solvent into a vial or flask. Weigh out G-180 to provide a concentration of 25%. […] Visually inspect for clarity. If the solution is not completely clear, add solvent, calculate new concentration of G-180 and repeat the solubilization energy and check for clarity. Once a level of clarity is achieved, repeat the process but increase the G-180 concentration by 10% until clarity is diminished. Once these cross points of clarity are achieved, this is reported as the experimental solubility limit of G-180 in the respective solvent.

[3] = demonstrated in commonly assigned U.S. Application No. 61/003,863; cited from earlier work
Cooling effect (sensory) = format: in vivo; details: neoisomer prepared in Procter & Gamble laboratories
Text: Many of the compounds above including menthol have relatively low potency and the duration of the cooling effect is typically short-lived. Thus, it is necessary to include fairly high levels of such compounds when formulating products, which increases cost. In addition, many of these compounds are relatively high cost ingredients since they are expensive to manufacture on an industrial scale. Therefore, compounds with high potency and long lasting cooling effect are highly sought that will require only small amounts for incorporation in a variety of consumer products to provide high impact and long-lasting effect. Such potent and long lasting coolant compounds have recently been described for example in WO 2005/049553A1 to Givaudan including ρ-menthane carboxamides substituted at the amide N-position with an aryl moiety bearing certain substituents. Examples include N-(4-cyanomethylphenyl)-ρ-menthanecarboxamide; N-(4-sulfamoylphenyl)-ρ-menthanecarboxamide; N-(4-cyanophenyl)-ρ-menthanecarboxamide; N-(4-acetylphenyl)-ρ-menthanecarboxamide, N-(4-hydroxymethylphenyl)-ρ-menthanecarboxamide and N-(3-hydroxy-4-methoxyphenyl)-ρ-menthanecarboxamide. […]

CC(C)[C@@H]1CC[C@@H](C)C[C@H]1O [L-menthol]
cooling threshold [1]: about 800 ppb

CC(C)[C@H]1CC[C@H](C)C[C@H]1O [l-neomenthol]
cooling threshold [1]: about 3,000 ppb

CC(C)[C@@H]1CC[C@@H](C)C[C@H]1C(=O)Nc1ccc(CC#N)cc1 [G180, N-[4-(cyanomethyl)phenyl]-(1R,2S,5R)-2-isopropyl-5-methylcyclohexanecarboxamide]
G180 Experimental % Solubility ([2]; solvent 2,3-dimethyl Pyrazine): 20.4% | G180 Experimental % Solubility ([2]; solvent 2,5-dimethyl Pyrazine): 20.0% | G180 Experimental % Solubility ([2]; solvent Benzaldehyde): 16.7% | G180 Experimental % Solubility ([2]; solvent Benzyl Salicylate): 14.7% | G180 Experimental % Solubility ([2]; solvent Benzyl alcohol): 21.2% | G180 Experimental % Solubility ([2]; solvent Cuminylaldehyde): 20.0% | G180 Experimental % Solubility ([2]; solvent Isoamyl propionate): 13.2% | G180 Experimental % Solubility ([2]; solvent Menthone): 15.4% | G180 Experimental % Solubility ([2]; solvent Neryl acetate): 7.4% | G180 Experimental % Solubility ([2]; solvent Para-Tolualdehyde): 15.9% | G180 Experimental % Solubility ([2]; solvent Triacetin): 4.4% | G180 Experimental % Solubility ([2]; solvent Water): <0.1% | G180 Experimental % Solubility ([2]; solvent α-Amyl Cinnamic Aldehyde): 12.1% | cooling effect [3]: intense and long-lasting cooling effect

CC(C)[C@@H]1CC[C@@H](C)C[C@@H]1O [d-neomenthol]
cooling threshold [1]: about 25,000 ppb

CC(C)[C@@H]1CC[C@@H](C)C[C@@H]1C(=O)Nc1ccc(CC#N)cc1 [neoisomer, N-[4-(cyanomethyl)phenyl]-(1S,2S,5R)-2-isopropyl-5-methylcyclohexanecarboxamide]
cooling effect (Cooling effect (sensory)): potent and long-lasting cooling effect
